Results on 14 compounds are retold here after patent publication US10954252B1, “Inhibitors of human immunodeficiency virus replication” (ViiV HEALTHCARE UK (NO.5) LIMITED, priority 2017, dated 2021).

The test system of data set [1] is recombinant NL4-3 virus (nef section replaced with Renilla luciferase gene) in MT-2 cells. The data set is described as follows: HIV cell culture assay (antiviral activity, luciferase readout). The data set is classed as cell-based. Conditions: MT-2 cells infected for 4-5 days with recombinant NL4-3 luciferase virus. The essentials:
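Serially diluted compounds were present throughout a 4-5 day infection of MT-2 cells by recombinant NL4-3 whose nef region partly encodes Renilla luciferase. Antiviral activity was taken from live-cell luciferase signal, with the 50% effective concentration fitted by the exponential median effect equation.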

A short description of data set [2]: Compound cytotoxicity, XTT-based colorimetric assay. It counts as cell-based. Conditions: human, uninfected MT2 cells. The essentials: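 XTT colorimetric read-out on day 4 gave CC50 values, using MT2 cells left uninfected but otherwise handled as in the antiviral assay.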

Molecules are shown by their SMILES.

Turning to `COc1c(F)cc2c(=O)n(-c3ccc(Cl)c4c(NS(C)(=O)=O)nn(C)c34)c([C@H](Cc3cc(F)cc(F)c3)NC(=O)Cn3ccc(C4CC4)n3)nc2c1F` (single isomer, unassigned) [Example 115], the EC50 in data set [1] (Table 1a) turned out to be 68.4 nM. The compound further returned a CC50 at 4 days in data set [2] (Table 1a, day 4, XTT) above 1000 nM.
On to `O=C(Cn1nc(C(F)F)c2c1C(F)(F)[C@@H]1C[C@H]21)N[C@@H](Cc1cc(F)cc(F)c1)c1nc2cn[nH]c2cc1-c1ccc(S(=O)(=O)N2CCSCC2)cc1` [Example 27, 2-((3bS,4aR)-3-(difluoromethyl)-5,5-difluoro-3b,4,4a,5-tetrahydro-1H-cyclopropa[3,4]cyclopenta[1,2-c]pyrazol-1-yl)-N—((S)-2-(3,5-difluorophenyl)-1-(6-(4-(thiomorpholinosulfonyl)phenyl)-1H-pyrazolo[4,3-b]pyridin-5-yl)ethyl)acetamide], for which the EC50 in data set [1] (Renilla, NL43, Table 1a) is 4.94 nM. The compound also gave a CC50 at 4 days in data set [2] (Table 1a, day 4, XTT) of 5010 nM.
Regarding `Cn1nc(NS(C)(=O)=O)c2c(Cl)ccc(-n3c([C@H](Cc4cc(F)cc(F)c4)NC(=O)Cn4ccc(C5CC5)n4)nc4ncccc4c3=O)c21` [Example 15, (S)—N-(1-(3-(4-chloro-1-methyl-3-(methylsulfonamido)-1H-indazol-7-yl)-4-oxo-3,4-dihydropyrido[2,3-d]pyrimidin-2-yl)-2-(3,5-difluorophenyl)ethyl)-2-(3-cyclopropyl-1H-pyrazol-1-yl)acetamide], the half-maximal effective concentration (EC50) in data set [1] (Renilla, NL43, Table 1) stood at 320 nM. In data set [2] (Table 1, day 4, XTT), this compound had a CC50 at 4 days above 1000 nM.
On to `O=C(Cc1c[nH]c2ccc(O)cc12)N[C@@H](Cc1cc(F)cc(F)c1)c1nc2ccccc2nc1-c1ccc2c(c1)C(=O)NC2` [Example 158, (S)—N-(2-(3,5-difluorophenyl)-1-(3-(3-oxoisoindolin-5-yl)quinoxalin-2-yl)ethyl)-2-(5-hydroxy-1H-indol-3-yl)acetamide], for which, in data set [1] (Renilla, NL43, Table 1a), the EC50 was determined as 102 nM. The CC50 at 4 days in data set [2] (Table 1a, day 4, XTT) is above 10000 nM.
As to `Cn1nc(NS(C)(=O)=O)c2c(Cl)ccc(-n3c([C@H](Cc4cc(F)cc(F)c4)NC(=O)Cn4nc(C(F)F)c5c4C(F)(F)[C@@H]4C[C@H]54)nc4cc(C5CC5)ccc4c3=O)c21` (mixture of isomers) [Example 197, N—((S)-1-(3-(4-chloro-1-methyl-3-(methylsulfonamido)-1H-indazol-7-yl)-7-cyclopropyl-4-oxo-3,4-dihydroquinazolin-2-yl)-2-(3,5-difluorophenyl)ethyl)-2-((3bS,4aR)-3-(difluoromethyl)-5,5-difluoro-3b,4,4a,5-tetrahydro-1H-cyclopropa[3,4]cyclopenta[1,2-c]pyrazol-1-yl)acetamide], the EC50 in data set [1] (Table 1a) came to 42.6 nM. In data set [2] (Table 1a, day 4, XTT), this compound had a CC50 at 4 days above 1000 nM.
With `O=C(Cc1c[nH]c2ccc(O)cc12)N[C@@H](Cc1cc(F)cc(F)c1)c1nc2ccccc2c(=O)n1-c1ccc(S(=O)(=O)N2CCOCC2)cc1` [Example 164, (S)—N-(2-(3,5-difluorophenyl)-1-(3-(4-(morpholinosulfonyl)phenyl)-4-oxo-3,4-dihydroquinazolin-2-yl)ethyl)-2-(5-hydroxy-1H-indol-3-yl)acetamideacetamide], the EC50 in data set [1] (Renilla, NL43, Table 1a) turned out to be 1.17 nM. The compound further returned a CC50 at 4 days in data set [2] (Table 1a, day 4, XTT) above 10000 nM.
The corresponding values for `Cn1nc(NS(C)(=O)=O)c2c(Cl)ccc(-c3nc4ccccc4nc3[C@@H](Cc3cc(F)cc(F)c3)NC(=O)Cn3nc(C(F)F)c4c3C(F)(F)[C@@H]3C[C@H]43)c21` [Example 155, N—((R)-1-(3-(4-chloro-1-methyl-3-(methylsulfonamido)-1H-indazol-7-yl)quinoxalin-2-yl)-2-(3,5-difluorophenyl)ethyl)-2-((3bS,4aR)-3-(difluoromethyl)-5,5-difluoro-3b,4,4a,5-tetrahydro-1H-cyclopropa[3,4]cyclopenta[1,2-c]pyrazol-1-yl)acetamide] are 35.8 nM and above 10000 nM.
The corresponding values for `CC(C)c1ccc(-n2c([C@H](Cc3cc(F)cc(F)c3)NC(=O)Cc3c[nH]c4ccc(O)cc34)nc3cc(C#N)ccc3c2=O)cn1` [Example 162, (S)—N-(1-(7-cyano-3-(6-isopropylpyridin-3-yl)-4-oxo-3,4-dihydroquinazolin-2-yl)-2-(3,5-difluorophenyl)ethyl)-2-(5-hydroxy-1H-indol-3-yl)acetamide] are 6.56 nM and above 10000 nM.
`CC1(S(=O)(=O)NC(=O)c2cc(-c3cc4[nH]ncc4nc3[C@H](Cc3cc(F)cc(F)c3)NC(=O)Cn3nc(C(F)F)c4c3C(F)(F)[C@@H]3C[C@H]43)ccc2Cl)CC1` [Example 10.20, 2-Chloro-5-(5-((S)-1-(2-((3bS,4aR)-3-(difluoromethyl)-5,5-difluoro-3b,4,4a,5-tetrahydro-1H-cyclopropa[3,4]cyclopenta[1,2-c]pyrazol-1-yl)acetamido)-2-(3,5-difluorophenyl)ethyl)-1H-pyrazolo[4,3-b]pyridin-6-yl)-N-((1-methylcyclopropyl)sulfonyl)benzamide]: the concentration giving a half-maximal response (EC50) in data set [1] (Renilla, NL43, Table 1) worked out at 290 nM. For the same compound, in data set [2] (Table 1, day 4, XTT), the CC50 at 4 days was above 10000 nM.
Turning to `COc1cccc2nc([C@H](Cc3cc(F)cc(F)c3)NC(=O)Cn3nc(C(F)F)c4c3C(F)(F)[C@@H]3C[C@H]43)n(-c3ccc(Cl)c4c(NS(C)(=O)=O)nn(C)c34)c(=O)c12` (mixture of isomers) [Example 169, N—((S)-1-(3-(4-chloro-1-methyl-3-(methylsulfonamido)-1H-indazol-7-yl)-5-methoxy-4-oxo-3,4-dihydroquinazolin-2-yl)-2-(3,5-difluorophenyl)ethyl)-2-((3bS,4aR)-3-(difluoromethyl)-5,5-difluoro-3b,4,4a,5-tetrahydro-1H-cyclopropa[3,4]cyclopenta[1,2-c]pyrazol-1-yl)acetamide], the EC50 in data set [1] (Table 1a) is 119 nM. In data set [2] (Table 1a, day 4, XTT), this compound displayed a CC50 at 4 days above 1000 nM.
With `COC(=O)c1cccc(-c2cc3[nH]ncc3nc2[C@H](Cc2cc(F)cc(F)c2)NC(=O)Cn2nc(C(F)F)c3c2C(F)(F)[C@@H]2C[C@H]32)c1` [Example 10.8, Methyl 3-(5-((S)-1-(2-((3bS,4aR)-3-(difluoromethyl)-5,5-difluoro-3b,4,4a,5-tetrahydro-1H-cyclopropa[3,4]cyclopenta[1,2-c]pyrazol-1-yl)acetamido)-2-(3,5-difluorophenyl)ethyl)-1H-pyrazolo[4,3-b]pyridin-6-yl)benzoate], the EC50 in data set [1] (Renilla, NL43, Table 1) turned out to be 1200 nM. For the same compound, in data set [2] (Table 1, day 4, XTT), the CC50 at 4 days was above 10000 nM.
As for `O=C(Cn1nc(C(F)F)c2c1C(F)(F)[C@@H]1C[C@H]21)N[C@@H](Cc1cc(F)cc(F)c1)c1nc2cn[nH]c2cc1-c1ccc(S(=O)(=O)N2CCOCC2)cc1` [Example 25, 2-((3bS,4aR)-3-(difluoromethyl)-5,5-difluoro-3b,4,4a,5-tetrahydro-1H-cyclopropa[3,4]cyclopenta[1,2-c]pyrazol-1-yl)-N—((S)-2-(3,5-difluorophenyl)-1-(6-(4-(morpholinosulfonyl)phenyl)-1H-pyrazolo[4,3-b]pyridin-5-yl)ethyl)acetamide], the EC50 in data set [1] (Renilla, NL43, Table 1a) was found to be 5.78 nM. In data set [2] (Table 1a, day 4, XTT), this compound yielded a CC50 at 4 days of 7940 nM.
For `COc1ccc2c(=O)n(-c3ccc(Cl)c4c(NS(C)(=O)=O)nn(C)c34)c([C@H](Cc3cc(F)cc(F)c3)NC(=O)Cn3nc(C(F)F)c4c3C(F)(F)[C@@H]3C[C@H]43)nc2c1F` (single isomer, unassigned) [Example 76], in that order: 0.118 nM and above 1000 nM.
For `Cn1nc(NS(C)(=O)=O)c2c(Cl)ccc(-c3cc4cc[nH]c4nc3[C@H](Cc3cc(F)cc(F)c3)NC(=O)Cn3nc(C(F)F)c4c3C(F)(F)[C@@H]3C[C@H]43)c21` (single isomer, unassigned) [Example 84], in that order: 0.94 nM and above 10000 nM.
